{"source": "patent US20070015138A1", "about": "“Methods for identifying agents and conditions that modulate neurogenesis” (BrainCells, Inc., priority 2005, published 2007)", "key": {"[1]": {"system": "cultured human neural stem cells (hNSCs)", "test": "Automated differentiation assay using monolayer cultures, neuronal lineage (Tuj1 staining per Hoechst-counted cell)", "type": "cell-based", "details": "for concentration at which the agent by itself affected neuronal differentiation / effect on differentiation along a neuronal lineage, agent by itself: no constitutive factor; for effect on differentiation along a neuronal lineage, agent by itself: normalized to neuronal positive control; for effect on neuronal differentiation, AMPA combined with M6: AMPA about 3 nM to about 10 μM plus 10 μM M6 (cyclo-(Pro-Gly)), FIG. 5; for EC50: Homo sapiens, Neural stem cell", "experimental": "(§1) Cells were cultured in mitogen free test media or exposed to differentiating agents as described herein immediately upon plating of cells. Stable, differentiation-compatible culture may be used with automated equipment (like Perkin Elmer Evolution P3, Perkin Elmer Multiprobe II Plus and Bio-Tek ELx405 Select CW as non-limiting examples) to replace 50% of media with newly prepared media and differentiation agent between 3 to 4 days after commencement of the experiment.\n(§2) Measurement of the resulting NSC differentiation may be performed by fixation and staining as described herein and subsequent use of automated equipment (InCell Analyzer high throughput imaging system) to take multiple pictures per well, at multiple wavelengths. Quantification of neuronal differentiation was performed by measuring the amount of Tuj1 staining and dividing the number by the number of cells as determined through automated counting of Hoechst stained cell nuclei. Quantification of astocytic differentiation was performed by measuring the amount of GFAP staining and dividing the number by the number of cells as determined through automated counting of Hoechst stained cell nuclei. […] An agent's effect on astrocyte or oligodendrocyte differentiation can be determined in a similar manner using other cell type specific antibodies, examples of which include GFAP (astrocytes), NF-200 (neurons), and O1 and O4 (oligodendrocytes)."}, "[2]": {"system": "cultured human neural stem cells (hNSCs)", "test": "Automated differentiation assay using monolayer cultures, astrocyte lineage (GFAP staining per Hoechst-counted cell)", "type": "cell-based", "details": "for effect on differentiation along an astrocyte lineage (astrogenesis), agent alone: normalized to astrocyte positive control", "experimental": "as §1, §2"}, "[3]": {"system": "Human NSCs plated as monolayers", "experimental": "Human NSCs maintained as neurospheres are plated as monolayers on laminin/poly-L-lysine coated plates and assayed for proliferation and/or differentiation, as described in Examples 3 and 4, except that the test media is modified to include one or more neurotransmitters at various concentrations to facilitate detection of neurogenesis modulating agents. […] Proliferation is measured as the mean cell intensity per microscopic field of view, with the mean cell intensity for control experiments subtracted. Data is plotted as a dose response curve of dopamine with and without 2 independent concentrations of 5-HTP."}, "[4]": {"system": "human NSCs cultured as monolayers in 96-well plates", "details": "DMSO vehicle max 0.3%, FIG. 8", "experimental": "Briefly, cells were cultured as described in Example 5 with the presence of histamine. The histamine was dissolved in DMSO as a vehicle, and cells were exposed to a maximum concentration of 0.3% vehicle. Cell number was determined by fixation and exposure of cells to Hoechst stain. Image acquisition was automated with the use of an InCell Analyzer 1000, and the number of cells determined by automated counting of stained nuclei. […] (see FIG. 8).\nToxic effects of agents can be determined in a similar manner. NSCs were exposed to BAY-60-7550 as described above and cell number was quantified."}, "[5]": {"system": "human NSCs in monolayer culture", "test": "Automated proliferation (growth or trophism) assay using monolayer cultures, test media with mitogens", "type": "cell-based", "details": "control conditions, across a range of concentrations; FIG. 1B", "experimental": "Sterile, tissue culture treated, clear bottom 96-well plates (e.g., Costar 3712) are coated 10 μg/ml poly-L-lysine and 50 μg/ml mouse Laminin, as described in Example 2. 10-15 neurospheres in maintenance media (see, Example 2) are transferred (estimated at 100,000 cells/sphere) to an eppendorf tube and enzymatically dissociated as described in Example 2. Approximately 50,000 cells are plated per 100 μl/well. The cells are allowed to attach by incubating for approximately one hour, and 100 μl/well of test compounds are added. […] Compounds are prepared using Perkin-Elmer MultiPROBE II PLUSHT EX (Protocol 8-point HumanCRC96-well) in test media (30% Hams F12 (Gibco 11765-062), 70% DMEM (Gibco 11965-118), 1% PSA (Gibco-BRL 15420-062), 1% N2 (Gibco-BRL 17502-048), 20 ng/ml EGF (Sigma E9644), 10 ng/ml LIF (Chemicon LIF100), 20 ng/ml bFGF (R and D 233-FB) and 5 μg/ml heparin (Sigma H3149)).\nEach plate contains controls containing test media (positive control) and test media without growth factors (negative control). Plates are incubated at 37° C. and 5% CO2 for a total of 7 days. At day 4, the cell plates are aspirated and fresh compound/media is added. After incubation, the wells are washed 1× with 0.1M Tris-Buffered Saline (TBS), and incubated at room temperature for 30 minutes with 100 μl/well of Fixing/Nuclear staining solution (8 μg/ml Hoechst 33342 and 3.7% Formaldehyde in 0.1M TBS). […]"}}, "note": "Entries after “also recorded” stand apart in the source; their conditions may differ. Where two headings read alike, the source gives them in different places.", "data": [{"compound": "N[C@@H](Cc1c[nH]c2ccc(O)cc12)C(=O)O", "note": "[5-HTP, 5-Hydroxy L tryptophan]", "values": [{"measurement": "concentration at which the agent by itself affected neuronal differentiation", "setting": "[1]", "result": "≥ 4", "unit": "µM"}, {"measurement": "effect on differentiation along a neuronal lineage, agent by itself", "setting": "[1]", "result": "increased differentiation of NSCs into neurons; also recorded: significantly enhanced neuronal differentiation"}]}, {"compound": "Cc1onc(O)c1CC(N)C(=O)O", "note": "(stereo not drawn) [AMPA, alpha-amino-3-hydroxy-5-methyl-4-isoxazolepropionic acid]", "values": [{"measurement": "effect on neuronal differentiation, AMPA combined with M6", "setting": "[1]", "result": "significantly enhanced levels of neuronal differentiation"}, {"measurement": "concentration at which the agent by itself affected neuronal differentiation", "setting": "[1]", "result": "about 30 μM"}, {"measurement": "effect on differentiation along a neuronal lineage, agent by itself", "setting": "[1]", "result": "only a slight effect"}]}, {"compound": "C[C@]12CC[C@H](O)CC1=CC[C@@H]1[C@@H]2CC[C@]2(C)C(=O)CC[C@@H]12", "note": "[DHEA]", "values": [{"measurement": "effect on differentiation along a neuronal lineage, agent by itself", "setting": "[1]", "result": "promotes differentiation"}]}, {"compound": "CC(N)Cc1ccccc1", "note": "(stereo not drawn) [amphetamine]", "values": [{"measurement": "EC50", "setting": "[1]; plus 10 μM dopamine, FIG. 2B, read-out: EC50, neuronal differentiation in combination with dopamine", "result": "~30", "unit": "µM"}, {"measurement": "effect on differentiation along a neuronal lineage, agent by itself", "setting": "[1]", "result": "did not have a significant effect"}, {"measurement": "effect on neuronal differentiation in combination with dopamine as constitutive factor", "setting": "[1]; plus 10 μM dopamine", "result": "significantly enhanced neuronal differentiation"}]}, {"compound": "O=C1CC2(CCCC2)CC(=O)N1CCCCN1CCN(c2ncccn2)CC1", "note": "[buspirone]", "values": [{"measurement": "effect on differentiation along an astrocyte lineage (astrogenesis), agent alone", "setting": "[2]", "result": "promotes differentiation into both neurons and astrocytes"}, {"measurement": "effect on differentiation along a neuronal lineage, agent by itself", "setting": "[1]", "result": "promotes differentiation into both neurons and astrocytes"}]}, {"compound": "NCCc1ccc(O)c(O)c1", "note": "[dopamine]", "values": [{"measurement": "concentration at which the agent by itself affected neuronal differentiation", "setting": "[1]", "result": "≥ 1", "unit": "µM"}, {"measurement": "effect on differentiation along a neuronal lineage, agent by itself", "setting": "[1]", "result": "minor effect; also recorded: only a slight effect"}, {"measurement": "effect on differentiation along a neuronal lineage, agent by itself", "setting": "[1]; listed as Dopamine", "result": "did not promote differentiation"}, {"measurement": "effect on neuronal differentiation in combination with 5-HTP as constitutive factor", "setting": "[1]; plus 10 μM or 30 μM 5-HTP, FIG. 4B", "result": "concentration-dependent increase in NSC differentiation; also recorded: significantly enhanced neuronal differentiation"}, {"measurement": "effect on NSC proliferation (mean cell intensity) with 10 μM 5-HTP", "setting": "[3]; in the presence of 10 μM 5-HTP", "result": "substantially enhanced"}, {"measurement": "effect on NSC proliferation (mean cell intensity) with 30 μM 5-HTP", "setting": "[3]; in the presence of 30 μM 5-HTP, particularly at higher test agent concentrations", "result": "further enhanced"}, {"measurement": "effect on NSC proliferation (mean cell intensity), test agent alone", "setting": "[3]; media-only background subtracted", "result": "small dose-dependent effect"}]}, {"compound": "NCCc1c[nH]cn1", "note": "[histamine]", "values": [{"measurement": "cell proliferation / cell growth (cell number), trophic effect", "setting": "[4]", "result": "promotes increased cell proliferation"}, {"measurement": "cell proliferation / cell growth (cell number), trophic effect", "setting": "[4]; listed as Histamine", "result": "promoted cell growth in a concentration-dependent manner"}]}, {"compound": "COc1ccc2[nH]cc(CCNC(C)=O)c2c1", "note": "[melatonin]", "values": [{"measurement": "effect on astrocyte differentiation, buspirone with melatonin", "setting": "[2]; increasing melatonin added to buspirone concentration-response curve, FIG. 11 lower panel", "result": "repression of astrocytes"}, {"measurement": "effect on differentiation along an astrocyte lineage (astrogenesis), agent alone", "setting": "[2]", "result": "no effect on astrogenesis"}, {"measurement": "effect on neuronal differentiation, buspirone with melatonin", "setting": "[1]; increasing melatonin added to buspirone concentration-response curve, FIG. 11 upper panel", "result": "differentiation into neurons is preserved"}]}, {"compound": "COC(=O)C(c1ccccc1)C1CCCCN1", "note": "(stereo not drawn) [methylphenidate]", "values": [{"measurement": "concentration at which the agent by itself affected neuronal differentiation", "setting": "[1]", "result": "greater than 1 μM"}, {"measurement": "effect on differentiation along a neuronal lineage, agent by itself", "setting": "[1]", "result": "only a slight effect"}, {"measurement": "effect on neuronal differentiation in combination with dopamine as constitutive factor", "setting": "[1]; plus 10 μM dopamine", "result": "significantly enhanced the degree of neuronal differentiation"}]}, {"compound": "CN1CC[C@]23c4c5ccc(O)c4O[C@H]2[C@@H](O)C=C[C@H]3[C@H]1C5", "note": "[morphine]", "values": [{"measurement": "effect on DHEA-driven normal NSC neuronal differentiation", "setting": "NSC monolayer culture; simultaneous exposure with DHEA", "result": "inhibition of normal NSC differentiation"}]}, {"compound": "O=C1CC[C@@]2(O)[C@H]3Cc4ccc(O)c5c4[C@@]2(CCN3CC2CC2)[C@H]1O5", "note": "[naltrexone]", "values": [{"measurement": "rescue of morphine-inhibited neuronal differentiation", "setting": "NSC monolayer culture; cells exposed to both morphine and naltrexone, FIG. 10", "result": "rescue of neurogenesis; also recorded: rescues opioid-induced inhibition"}, {"measurement": "toxicity or proliferation (cell number dose-response)", "setting": "[5]", "result": "non-neurogenic (non-tropic) and non-toxic; also recorded: neither toxic nor trophic"}]}, {"compound": "NC[C@H](O)c1ccc(O)c(O)c1", "note": "[norepinephrine]", "values": [{"measurement": "effect on differentiation along an astrocyte lineage (astrogenesis), agent alone", "setting": "[2]", "result": "no effect"}, {"measurement": "EC50", "setting": "[1]; mean of two independent experiments, FIG. 3A, read-out: EC50, neuronal differentiation, agent by itself", "result": "~4", "unit": "µM"}, {"measurement": "effect on differentiation along a neuronal lineage, agent by itself", "setting": "[1]", "result": "significantly enhanced neuronal differentiation"}]}, {"compound": "cyclo(Pro-Gly) [M6]", "values": [{"measurement": "effect on neuronal differentiation, AMPA combined with M6", "setting": "[1]", "result": "potentiates AMPA activity"}]}]}
